Molecules are shown by their SMILES.

The test system of the first experiment is MV4:11 human cancer cell lines. As to the kind of experiment: Cellular viability / anti-proliferative activity, CellTiter-Glo, 5 day protocol. The experiment is classed as cell-based. Particulars: Homo sapiens, MV4-11, 120 h, MV4:11 cells; 5 day incubation; CellTiter-Glo; mean of minimum two replicates; read-out: GI50 on cellular proliferation of MV4:11 human cancer cell lines. The protocol: Cellular Viability of Human Tumor Cell Lines
Anti proliferative activity using MLL-harboring cell lines. […] Viability assays are performed by dispensing 200 cells at 7200 cells/mL into each well of an opaque 384-well plate and adding compounds at the indicated concentrations in a final volume of 32 μL and a final concentration of DMSO of 0.3% for all samples. A certain range of compound concentrations is made through a series of 2-fold dilutions starting 30 μM at the highest, total 22 dilutions. After a set incubation period, 5 day protocol, the viability of cells in each well is assessed using the CellTiter-Glo assay (Promega), read on a 96 Microplane Luminometer (Cytation 3, BioTek). Serial dilutions of each cell type are performed in all assays to generate standard curves and the final densities of cells are determined within the dynamic range of the instrument. GI50 values are calculated based on XLfit software (IDBS, Guildford, UK) with Sigmoidal Dose-Response Model. Each compound is tested in minimum of two replicates. Data are expressed as mean.
(ATP-based viability assays read luminescence as a measure of living cells.)
With `Cc1nccn1Cc1cc2c(c(-c3cn(C)nc3C(F)(F)F)c1)CCN(Cc1cccc(C3CC3)c1)C2=O` [Example 234, 2-(3-Cyclopropylbenzyl)-7-((2-methyl-1H-imidazol-1-yl)methyl)-5-(1-methyl-3-(trifluoromethyl)-1H-pyrazol-4-yl)-3,4-dihydroisoquinolin-1(2H)-one], the GI50 was determined as 283 nM. Consider `COc1cc(CN2CCc3c(cc(Cn4ccn(C)c4=N)cc3-c3c(C)noc3C)C2=O)cc(OC)c1` [Example 76, 2-(3,5-Dimethoxybenzyl)-5-(3,5-dimethylisoxazol-4-yl)-7-((2-imino-3-methyl-2,3-dihydro-1H-imidazol-1-yl)methyl)-3,4-dihydroisoquinolin-1(2H)-one], for which the GI50 is more than 938 nM. The same measure, in the same setting: the value for `COc1cc(CN2CCc3c(OCC(F)(F)F)cc(Cn4ccn(C)c4=N)cc3C2=O)cc(OC)c1` [Example 73, 2-(3,5-Dimethoxybenzyl)-7-((2-imino-3-methyl-2,3-dihydro-1H-imidazol-1-yl)methyl)-5-(2,2,2-trifluoroethoxy)-3,4-dihydroisoquinolin-1(2H)-one] was more than 938 nM.

As for `COc1ccnc([C@H](C)N2CCc3c(cc(Cn4ccnc4C)cc3-c3cnccc3C)C2=O)c1` [Example 196, (S)-2-(1-(4-Methoxypyridin-2-yl)ethyl)-7-((2-methyl-1H-imidazol-1-yl)methyl)-5-(4-methylpyridin-3-yl)-3,4-dihydroisoquinolin-1(2H)-one], the GI50 is 936 nM.

Consider `CCn1cc(-c2cc(Cn3ccn(C4CC4)c3=N)cc3c2CCN(Cc2cc(OC)ccn2)C3=O)cn1` [Example 50, 7-((3-Cyclopropyl-2-imino-2,3-dihydro-1H-imidazol-1-yl)methyl)-5-(1-ethyl-1H-pyrazol-4-yl)-2-((4-methoxypyridin-2-yl)methyl)-3,4-dihydroisoquinolin-1(2H)-one], for which the GI50 is more than 938 nM.

Consider `COc1ccnc(CN2CCc3c(cc(Cn4ccnc4C)cc3-c3cn(C)nc3C(F)(F)F)C2=O)c1` [Example 8, 2-((4-Methoxypyridin-2-yl)methyl)-7-((2-methyl-1H-imidazol-1-yl)methyl)-5-(1-methyl-3-(trifluoromethyl)-1H-pyrazol-4-yl)-3,4-dihydroisoquinolin-1(2H)-one], for which the GI50 is less than 50 nM. In the case of `Cc1cccc(CN2CCc3c(cc(Cn4ccnc4C)cc3-c3cn(C)nc3C(F)(F)F)C2=O)c1` [Example 209, 7-((2-Methyl-1H-imidazol-1-yl)methyl)-5-(1-methyl-3-(trifluoromethyl)-1H-pyrazol-4-yl)-2-(3-methylbenzyl)-3,4-dihydroisoquinolin-1(2H)-one], the GI50 turned out to be 85 nM. Same read-out and setting: the figure for `CCn1cc(-c2cc(Cn3ccoc3=N)cc3c2CCN(Cc2cc(OC)ccn2)C3=O)c(C(F)(F)F)n1` [Example 89, 5-(1-Ethyl-3-(trifluoromethyl)-1H-pyrazol-4-yl)-7-((2-iminooxazol-3(2H)-yl)methyl)-2-((4-methoxypyridin-2-yl)methyl)-3,4-dihydroisoquinolin-1(2H)-one] is less than 50 nM.

On to `COc1ccnc(CN2CCc3c(cc(CN4CCCC4=N)cc3-c3cn(C)nc3C)C2=O)c1` [Example 110, 5-(1,3-Dimethyl-1H-pyrazol-4-yl)-7-((2-iminopyrrolidin-1-yl)methyl)-2-((4-methoxypyridin-2-yl)methyl)-3,4-dihydroisoquinolin-1(2H)-one], for which the GI50 was more than 938 nM. Same read-out and setting: the figure for `COc1ccnc(CN2CCc3c(cc(CN4CCN(C5CC5)C4=N)cc3-c3cn(C)nc3C(F)(F)F)C2=O)c1` [Example 44, 7-((3-Cyclopropyl-2-iminoimidazolidin-1-yl)methyl)-2-((4-methoxypyridin-2-yl)methyl)-5-(1-methyl-3-(trifluoromethyl)-1H-pyrazol-4-yl)-3,4-dihydroisoquinolin-1(2H)-one] is less than 50 nM; for `CCc1ccnc(CN2CCc3c(cc(Cn4ccnc4C)cc3-c3cn(CC)nc3C(F)(F)F)C2=O)c1` [Example 21, 5-(1-Ethyl-3-(trifluoromethyl)-1H-pyrazol-4-yl)-2-((4-ethylpyridin-2-yl)methyl)-7-((2-methyl-1H-imidazol-1-yl)methyl)-3,4-dihydroisoquinolin-1(2H)-one] it is less than 50 nM; for `CCn1cc(-c2cc(Cn3ccoc3=N)cc3c2CCN(Cc2cn(C)nc2C)C3=O)c(C(F)(F)F)n1` [Example 97, 2-((1,3-Dimethyl-1H-pyrazol-4-yl)methyl)-5-(1-ethyl-3-(trifluoromethyl)-1H-pyrazol-4-yl)-7-((2-iminooxazol-3(2H)-yl)methyl)-3,4-dihydroisoquinolin-1(2H)-one] it is 212 nM. Same read-out and setting: the figure for `COc1ccnc([C@H](C)N2CCc3c(cc(Cn4ccn(C(F)F)c4=N)cc3-c3cn(C)nc3C(F)(F)F)C2=O)c1` [Example 72, (S)-7-((3-(Difluoromethyl)-2-imino-2,3-dihydro-1H-imidazol-1-yl)methyl)-2-(1-(4-methoxypyridin-2-yl)ethyl)-5-(1-methyl-3-(trifluoromethyl)-1H-pyrazol-4-yl)-3,4-dihydroisoquinolin-1(2H)-one] is less than 50 nM; for `COc1ccnc(CN2CCc3c(cc(CNC(=N)C(F)(F)F)cc3-c3cn(C)nc3C(F)(F)F)C2=O)c1` [Example 120, 2,2,2-Trifluoro-N-((2-((4-methoxypyridin-2-yl)methyl)-5-(1-methyl-3-(trifluoromethyl)-1H-pyrazol-4-yl)-1-oxo-1,2,3,4-tetrahydroisoquinolin-7-yl)methyl)acetimidamide] it is more than 938 nM; for `CCc1ccc(OCC(=O)NCc2cccnc2)c(CN2CCc3c(cc(Cn4ccnc4C)cc3-c3cn(C)nc3C(F)(F)F)C2=O)c1` [Example 215, 2-(4-Ethyl-2-((7-((2-methyl-1H-imidazol-1-yl)methyl)-5-(1-methyl-3-(trifluoromethyl)-1H-pyrazol-4-yl)-1-oxo-3,4-dihydroisoquinolin-2(19)-yl)methyl)phenoxy)-N-(pyridin-3-ylmethyl)acetamide] it is 168 nM.

For `CCn1cc(CN2CCc3c(cc(CN4CCOC4=N)cc3-c3cn(CC)nc3C(F)(F)F)C2=O)nn1` [Example 99, 2-((1-Ethyl-1H-1,2,3-triazol-4-yl)methyl)-5-(1-ethyl-3-(trifluoromethyl)-1H-pyrazol-4-yl)-7-((2-iminooxazolidin-3-yl)methyl)-3,4-dihydroisoquinolin-1(2H)-one], the GI50 was found to be 77 nM.

As to `CCn1cc(-c2cc(Cn3ccn(C(F)F)c3=N)cc3c2CCN([C@@H](C)c2cc(OC)ccn2)C3=O)c(C(F)(F)F)n1` [Example 67, (S)-7-((3-(Difluoromethyl)-2-imino-2,3-dihydro-1H-imidazol-1-yl)methyl)-5-(1-ethyl-3-(trifluoromethyl)-1H-pyrazol-4-yl)-2-(1-(4-methoxypyridin-2-yl)ethyl)-3,4-dihydroisoquinolin-1(2H)-one], the GI50 was less than 50 nM. With `Cc1cncc([C@@H](C)N2CCc3c(cc(Cn4ccnc4C)cc3-c3cn(C)nc3C(F)(F)F)C2=O)c1` [Example 197, (R)-7-((2-Methyl-1H-imidazol-1-yl)methyl)-5-(1-methyl-3-(trifluoromethyl)-1H-pyrazol-4-yl)-2-(1-(5-methylpyridin-3-yl)ethyl)-3,4-dihydroisoquinolin-1(2H)-one], the GI50 is less than 50 nM.

With `Cc1cc([C@H](C)N2CCc3c(cc(Cn4ccnc4)cc3-c3cn(C)nc3C(F)(F)F)C2=O)ncc1F` [Example 185, (S)-7-((1H-Imidazol-1-yl)methyl)-2-(1-(5-fluoro-4-methylpyridin-2-yl)ethyl)-5-(1-methyl-3-(trifluoromethyl)-1H-pyrazol-4-yl)-3,4-dihydroisoquinolin-1(2H)-one], the GI50 was less than 50 nM.

As for `O=C1c2cc(Cn3ccnc3)ccc2CCN1Cc1cc(Cl)cc(Cl)c1` [Example 1, 7-((1H-Imidazol-1-yl)methyl)-2-(3,5-dichlorobenzyl)-3,4-dihydroisoquinolin-1(2H)-one], the GI50 was found to be 239 nM. The same measure, in the same setting: the value for `CCn1cc(-c2cc(Cn3ccnc3)cc3c2CCN([C@H](c2cc(C)ccn2)C2CC2)C3=O)c(C(F)(F)F)n1` [Example 245, (S)-7-((1H-imidazol-1-yl)methyl)-2-(cyclopropyl(4-methylpyridin-2-yl)methyl)-5-(1-ethyl-3-(trifluoromethyl)-1H-pyrazol-4-yl)-3,4-dihydroisoquinolin-1(2H)-one] was less than 50 nM.

For the compound `CCc1ccc(OC)c(CN2CCc3c(cc(Cn4ccnc4C)cc3-c3cn(C)nc3C(F)(F)F)C2=O)c1` [Example 217, 2-(5-Ethyl-2-methoxybenzyl)-7-((2-methyl-1H-imidazol-1-yl)methyl)-5-(1-methyl-3-(trifluoromethyl)-1H-pyrazol-4-yl)-3,4-dihydroisoquinolin-1(2H)-one], the GI50 was 149 nM. For `CCn1cc(-c2cc(Cn3ccn(C)c3=N)cc3c2CN(Cc2cc(OC)ccn2)C3=O)c(C(F)(F)F)n1` [Example 137, 4-(1-Ethyl-3-(trifluoromethyl)-1H-pyrazol-4-yl)-6-((2-imino-3-methyl-2,3-dihydro-1H-imidazol-1-yl)methyl)-2-((4-methoxypyridin-2-yl)methyl)isoindolin-1-one], the GI50 was 944 nM.

The same experiment, now with this note: Homo sapiens, MV4-11, 120 h, read-out: GI50 on cellular proliferation of MV4:11 human cancer cell lines.
As to `COc1ccnc(CN2CCc3c(cc(Cc4cncn4C)cc3-c3cn(C)nc3C(F)(F)F)C2=O)c1` [Example 131, 2-((4-Methoxypyridin-2-yl)methyl)-7-((1-methyl-1H-imidazol-5-yl)methyl)-5-(1-methyl-3-(trifluoromethyl)-1H-pyrazol-4-yl)-3,4-dihydroisoquinolin-1(2H)-one], the GI50 is more than 938 nM.

The record behind these values is patent publication US11999716B2, “WDR5 inhibitors and modulators” (priority 2018, dated 2024).
